The text below walks through data of patent US7312237B2, “Combination of epothilone analogs and chemotherapeutic agents for the treatment of prolilferative diseases” (Bristol-Myers Squibb Co., priority 2001, dated 2007).

The test system of series [1] is tubulin isolated from calf brain. Briefly: Tubulin polymerization assay. The class given is biochemical.
Series [2] deals with HCT116 human colon carcinoma cell line. Put plainly: Clonogenic cell colony-formation assay (single agent and combination, isobologram). The following applies: concentration killing clonogenic HCT-116 cells by 90%. The class given is cell-based. The text has this:
Analysis of the effects of combination treatment in vitro was by the isobologram and multiplicity methods described by Stephens and Steel
The success of an anticancer agent is dependent not only on its antitumor activity as a single agent but also on its ability to combine successfully with other antineoplastic drugs.

Series [3] concerns A2780Tax human ovarian carcinoma. Conditions: Expt. 12, IV q2dx5, OD 6.3 mg/kg. An excerpt: (§1) The following human tumors were used: A2780 ovarian, A2780Tax ovarian (established from cells obtained from Dr. Antonio Fojo, Medicine Branch, NCI, Bethesda, Md.), HCT116/VM46 colon, Pat-7 ovarian (established from a tumor biopsy provided by Dr. Thomas Hamilton, Fox Chase Cancer Center, Philadelphia, Pa.) from a patient who had developed resistance to TAXOL®). The murine fibrosarcoma M5076 was also employed.
The following tumors were passaged in the indicated host strain of mouse: murine M5076 fibrosarcoma (M5076) in C57Bl/6 mice; human A2780 and Pat-7 ovarian carcinomas, HCT116, HCT116/VM46 and LS174T colon carcinoma, Pat-21 breast carcinoma in nude mice. Tumor passage occurred biweekly for murine tumors and approximately every two to eight weeks for the various human tumor lines. With regard to efficacy testing, M5076 tumors were implanted in (C57Bl/6×DBA/2)F1 hybrid mice, and human tumors were implanted in nude mice. All tumor implants for efficacy testing were subcutaneous (sc). […]
(§2) Antitumor activity was evaluated at the maximum tolerated dose (MTD) which is defined as the dose level immediately […] which excessive toxicity (i.e. more than one death) occurred. […] When death occurs, the day of death was recorded. […]
(§3) To estimate tumor cell kill, the tumor volume doubling time was first calculated with the formula: […]

In the next series the test system is Pat-21 breast carcinoma. The following applies: Expt. R667, IV q4dx3; 41, 68, OD 10 mg/kg; interim analysis, study in progress.
From the text: (§4) The following tumors were passaged in the indicated host strain of mouse: murine M5076 fibrosarcoma (M5076) in C57Bl/6 mice; human A2780 and Pat-7 ovarian carcinomas, HCT116, HCT116/VM46 and LS174T colon carcinoma, Pat-21 breast carcinoma in nude mice. Tumor passage occurred biweekly for murine tumors and approximately every two to eight weeks for the various human tumor lines. With regard to efficacy testing, M5076 tumors were implanted in (C57Bl/6×DBA/2)F1 hybrid mice, and human tumors were implanted in nude mice. All tumor implants for efficacy testing were subcutaneous (sc).
(§5) The required number of animals needed to detect a meaningful response were pooled at the start of the experiment and each was given a subcutaneous implant of a tumor fragment (·50 mg) with a 13-gauge trocar. For treatment of early-stage tumors, the animals were again pooled before distribution to the various treatment and control groups. For treatment of animals with advanced-stage disease, tumors were allowed to grow to the predetermined size window (tumors outside the range were excluded) and animals were evenly distributed to various treatment and control groups. Treatment of each animal was based on individual body weight. Treated animals were checked daily for treatment related toxicity/mortality. Each group of animals was weighed before the initiation of treatment (Wt1) and then again following the last treatment dose (Wt2). The difference in body weight (Wt2−Wt1) provides a measure of treatment-related toxicity.
(§6) Tumor weights (mg) were estimated from the formula: Tumor weight=(length×width^2)÷2
as §2, §3

The test system of the next series is HCT116/VM46. Briefly: In vitro cytotoxicity (MTS assay), HCT116/VM46. The class given is cell-based, human. (Tetrazolium dyes change colour on reduction, which living cells bring about.)
The next series deals with HCT116 cells. Briefly: Mitotic blockade (cell cycle progression). The following applies: 7.5 nM, 8 hours. The class given is cell-based, human.
For series [4] the following is noted: human, in vivo.
In series [5] the test system is panel of tumor cell lines. Put plainly: Oncology Diverse Cell Assay, panel of 21 cell lines. The class given is cell-based. The following applies: 18 of the 21 cell lines tested. As for the experimental part:
Bar graphs, on the right, depict the IC50 values of the cell lines listed on the left hand column (top to bottom).
(§7) The in vitro cytotoxicity was assessed in tumor cells by a tetrazolium-based colorimetric assay which takes advantage of the metabolic conversion of MTS (3-(4,5-dimethylthiazol-2-yl)-5-(3-carboxymethoxyphenyl)-2-(4-sulphenyl)-2H-tetrazolium, inner salt) to a reduced form that absorbs light at 492 nm. Cells were seeded 24 hr prior to drug addition. Following a 72 hour incubation at 37° C. with serially diluted compound, MTS, in combination with the electron coupling agent phenazine methosulfate, was added to the cells. The incubation was continued for 3 hours, then the absorbancy of the medium at 492 nm was measured with a spectrophotometer to obtain the number of surviving cells relative to control populations. The results are expressed as median cytotoxic concentrations (IC50 values).

The next series is described as follows: in vivo. Conditions: nude, mouse, in vivo, iv, Compound 1 IV.
From the text: as §1, §4, §5, §6
(§8) Antitumor activity was evaluated at the maximum tolerated dose (MTD) which is defined as the dose level immediately […] which excessive toxicity (i.e. more than one death) occurred. […] When death occurs, the day of death was recorded.
(§9) Tumor response end-point was expressed in terms of tumor growth delay (T-C value), defined as the difference in time (days) required for the treated tumors (T) to reach a predetermined target size compared to those of the control group (C).
(§10) To estimate tumor cell kill, the tumor volume doubling time was first calculated with the formula:
(§11) TVDT=Median time (days) for control tumors to reach target size−Median time (days) for control tumors to reach half the target size
(§12) HCT116/VM46 is an MDR-resistant colon carcinoma developed from the sensitive HCT116 parent line.

The subject of series [6] is HCT116/VM46 human colon carcinoma. Put plainly: in vivo.
From the text: as §1, §4, §5, §6, §8, §9, §10, §11, §12

A short description of series [7]: In vivo antitumor testing, LS174T xenograft. Also on record: species or system nude mice. Conditions: nude, mouse, in vivo, iv; read-out: OD (optimal dose or MTD). As to the method: (§13) All tumor implants for efficacy testing were subcutaneous (sc).
(§14) The MTD was frequently equivalent to OD. When death occurs, the day of death was recorded.
(§15) And, Log cell kill=T−C÷(3.32×TVDT)

Series [8] has as its system LS174T human colon carcinoma. Briefly: In vivo antitumor testing, LS174T xenograft. Also on record: species or system nude mice. The following applies: Expt. R578, IV q4dx3, OD 16 mg/kg. As for the experimental part: as §13, §14, §15
Series [9] concerns normal mouse lung fibroblast cell line MLF. Put plainly: In vitro cytotoxicity (MTS assay), MLF. The class given is cell-based. As for the experimental part: as §7
A further series has as its system MIP. Put plainly: In vitro cytotoxicity (MTS assay), MIP. The class given is cell-based. The following applies: 72 h. As to the method:
as §7

For orientation: IC90 means the concentration needed for an effect of 90%. One may read the IC50 as the point on the concentration scale where inhibition reaches its midpoint. `C/C(=C\c1csc(C)n1)[C@@H]1C[C@@H]2O[C@]2(C)CCC[C@H](C)[C@H](O)[C@@H](C)C(=O)C(C)(C)[C@@H](O)CC(=O)N1` (relative stereo) [Compound 1, [1S-[1R*,3R*(E),7R*,10S*,11R*,12R*,16S*]]-7,11-dihydroxy-8,8,10,12,16-pentamethyl-3-[1-methyl-2-(2-methyl-4-thiazolyl)ethenyl]-4-aza-17-oxabicyclo[14.1.0] heptadecane-5,9-dione]: in series [1], the “Ratio of Polymerization Potency of Analog/Paclitaxel” value is 0.4. For the same molecule, in [2], the IC90 was roughly 7.5 nM. For the same molecule, the “LCK (gross log cell kill)” value is reported as 2.5 in series [3]; >1.5^5 in the series on Pat-21 breast carcinoma; 3.1 in series [6] (Expt. 32, IV q2dx5, OD 4.8 mg/kg); 1.3 in series [6] (Expt. 33, IV q2dx5, OD 4.8 mg/kg); 1.8 in series [6] (Expt. 35, IV q2dx5, OD 6.3 mg/kg); 2.0 in series [6] (Expt. 35, IV q4dx3, OD 16 mg/kg). In [8], the “LCK (gross log cell kill)” value is given as 2.3. In addition, the IC50 is 24.5 nM with HCT116/VM46 (Homo sapiens, HCT-116/VM46, HCT116/VM46 (MDR), 72 hour incubation); 1.4 to 6 nM in series [5]; 34.5 nM in series [9]; 24.8 nM with MIP. In addition, in the series on HCT116/VM46 (IC50 HCT116/VM46 versus sensitive HCT116), the “resistance ratio (R/S)” value turned out to be 9.4. In addition, the “block of cells in mitosis” value in the series with HCT116 cells was “almost completely blocks cells in mitosis”. In addition, in series [4], the “dose recommended for Phase II clinical trials” value was 50 mg/m2. Moreover, the MTD in the series “in vivo” (OD (optimal dose or MTD), q2dx5) is 4.8 mg/kg; in “in vivo” (OD (optimal dose or MTD; maximum tolerated regimen), q4dx3), 15 mg/kg; in [7], 16 mg/kg. The “OD (optimal dose or MTD)” value in series [6] (Compound 1 IV, q2dx5) came out at 6.3 mg/kg. The “OD (optimal dose or MTD; maximum tolerated regimen)” value in series [6] (Compound 1 IV, q4dx3) stood at 16 mg/kg. For the same molecule, the “LCK of tumor response” value in series [6] (FIG. 7, Compound 1 alone, 15 mg/kg iv, q4dx3) was 1.6 LCK. In series [6] (FIG. 7, single agent treatment at maximum tolerated regimen), the tumor cure entry is “did not induce tumor cure”.
